These results are taken from the NIST ThermoML archive (doi:10.1016/j.tca.2019.02.007).

The conditions of data set [1]: for Normal melting temperature: DTA.
The nature of data set [2]: Molar enthalpy of transition or fusion. As to conditions: DSC.

± gives the expanded uncertainty stated by the source.

For the compound `CC(=O)Oc1ccccc1C(=O)O` [2-acetoxybenzoic acid], in data set [1] (Crystal), the Normal melting temperature was determined as 139.2 ± 1.5 °C. Besides, the “Molar enthalpy of transition or fusion” value in data set [2] (Crystal) is 8.08 ± 0.574 kcal/mol.
As to `O=C(O)c1ccccc1` [benzoic acid], the Normal melting temperature in data set [1] (Crystal) was 122.5 ± 0.5 °C. Also, the “Molar enthalpy of transition or fusion” value in data set [2] (Crystal) is 4.33 ± 0.131 kcal/mol.
On to `Cn1c(=O)c2c(ncn2C)n(C)c1=O` [caffeine], for which, in data set [1] (Crystal 1), the Normal melting temperature is 235.2 ± 1.3 °C. Further, the Triple point temperature in data set [1] (Crystal 2, DSC) is 420.3 ± 1.1 K. For the same compound, the entries for the “Molar enthalpy of transition or fusion” value in data set [2] (Crystal 1) and in data set [2] (Crystal 2) were 5 ± 0.526 kcal/mol and 0.954 ± 0.0741 kcal/mol, respectively.
